ChEMBL document CHEMBL1828607, “N-Heteroaryl glycinamides and glycinamines as potent NPY5 antagonists” (Bioorg Med Chem Lett, 2011)
≈ marks a conversion by molar mass, not a printed value.

Columns and labels:
in vivo [1] = settings: Sprague-Dawley, rat, plasma, po, 10 mg/kg
Description: Drug level in femoral artery cannulated Sprague-Dawley rat plasma at 10 mg/kg, po after 1 hr by LC/MS/MS method

physchem [2] = settings: buffer, pH 7.4
Description: Solubility of the compound at pH 7.4

physchem [3] = settings: octanol/water
Description: Lipophilicity, log D of the compound

in vivo [4] = settings: Sprague-Dawley, rat, brain, po, 10 mg/kg
Description: Drug level in femoral artery cannulated Sprague-Dawley rat brain at 10 mg/kg, po after 1 hr by LC/MS/MS method

in vivo [5] = settings: Sprague-Dawley, rat, brain/plasma, po, 10 mg/kg
Description: Ratio of drug level in brain to plasma in femoral artery cannulated Sprague-Dawley rat at 10 mg/kg, po after 1 hr by LC/MS/MS method

Compound CN(C)S(=O)(=O)NC[C@H]1CC[C@H](NC(=O)CN2C(=O)CC(C)(C)Sc3ccccc32)CC1 has a concentration at 1 h (in vivo [1]) of 1.5 nM, a solubility (physchem [2]) of 440 µg/mL (≈ 912 µM) and a logD (physchem [3]) of 2.4.

Compound CC(C)S(=O)(=O)NC[C@H]1CC[C@H](NC(=O)CN2C(=O)COc3cc(Cl)ccc32)CC1 has a concentration at 1 h (in vivo [4]) of 33 nM, a concentration at 1 h (in vivo [1]) of 481 nM and a Kp at 1 h (in vivo [5]) of 0.07.

CC(C)S(=O)(=O)NC[C@H]1CC[C@H](NC(=O)CN2C(=O)CCc3cc(Cl)ccc32)CC1 showed a concentration at 1 h (in vivo [4]) of 16 nM, a concentration at 1 h (in vivo [1]) of 879 nM and a Kp at 1 h (in vivo [5]) of 0.02.

For CC(C)S(=O)(=O)NC[C@H]1CC[C@H](NC(=O)CN2CCOc3cc(Cl)ccc32)CC1, the concentration at 1 h (in vivo [4]) was 43 nM, the concentration at 1 h (in vivo [1]) was 430 nM and the Kp at 1 h (in vivo [5]) was 0.1.
